Two compounds from patent publication US6458847B1, “Method for screening for drugs useful in inhibition of polymerization of aβ and tau peptides” (University of Alabama at Birmingham Research Foundation, priority 1995, dated 2002) can be followed below.

In series [1] the test system is microtubule tau purified from P11 rat, adult rat. As to conditions: glutathione 1-10 mM.
Procedure: In general, tau stored at −80° C. in buffer A was thawed at 4° C., diluted into 100 mM Tris pH 7.2 containing DTT or b-mercaptoethanol (bME), and incubated at 37° C. 100 mM MES was used for experiments requiring buffering below pH 7. Final tau concentrations were in the range of 1-10 μM. […] Samples were deposited in 10 ml aliquots onto 400 mesh nickel grids coated with 0.4% formvar, rinsed with 5 drops H2O, and stained with 5 drops of 2% uranyl acetate, the last drop sitting 1 minutes prior to blotting. Grids were examined using a JEOL JEM-100CX transmission electron microscope operated at 80 kV. For filament length measurements, micrographs obtained at a nominal magnification of 15K (FIG. 6) or 10K (FIGS. 7 and 9) were digitized using a SIT68 camera (MTI), and lengths were determined using software from Universal Imaging Corporation. Only filaments contained completely within a field and measuring at least 50 nm were included in data sets. Fields selected at random were chosen at low illumination and without the aid of the 10× binoculars, so that Formvar integrity could be assessed without viewing the filaments present.
The target in another series is T1, juvenile rat MTτ (Rattus norvegicus, UniProt P19332, DEL587-617).
T1 construct: killed by decapitation at postnatal day 11 (juveniles); from tissue; host or cells: brain microtubules of P11 Sprague-Dawley rats
T1 sequence (P19332 with tags, fused parts or gaps isoform P19332-6 DEL209-239): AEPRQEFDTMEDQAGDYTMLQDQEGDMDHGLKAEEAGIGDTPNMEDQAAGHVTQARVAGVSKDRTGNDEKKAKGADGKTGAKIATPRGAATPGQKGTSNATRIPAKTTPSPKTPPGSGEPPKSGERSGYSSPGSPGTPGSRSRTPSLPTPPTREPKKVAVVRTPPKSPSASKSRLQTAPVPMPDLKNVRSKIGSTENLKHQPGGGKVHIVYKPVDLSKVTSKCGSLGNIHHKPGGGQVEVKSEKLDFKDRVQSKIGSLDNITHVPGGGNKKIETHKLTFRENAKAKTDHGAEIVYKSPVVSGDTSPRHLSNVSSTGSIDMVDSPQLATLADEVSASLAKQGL
As to the kind of experiment: Fatty acid dependence of tau assembly, polymer length per field by electron microscopy. It is filed as biochemical. How it is done:
All free fatty acids were purchased in the cis conformation and at maximum available purity from Sigma Chemical Company free fatty acids were diluted into tau and amyloid samples from a 200× ethanolic stock, such that the final ethanol concentration in all samples and controls was 0.5%.
Assembly was performed at 37° C. in siliconized microfuge tubes.
For staining of amyloid filaments, 4% uranyl acetate was used and the H2O rinse was omitted. […] Because short filaments were sometimes difficult to distinguish from background debri in digitized images, high concentrations of DTT were routinely used in order to maximize the production of longer filaments.

A short description of series [2]: Critical micellar concentration by phase partitioning of phenylnaphthylamine. It is filed as physicochemical. The protocol:
All free fatty acids were purchased in the cis conformation and at maximum available purity from Sigma Chemical Company free fatty acids were diluted into tau and amyloid samples from a 200× ethanolic stock, such that the final ethanol concentration in all samples and controls was 0.5%. Values for the critical micellar concentration (CMC) were obtained based on the phase partitioning of […] phenylnaphthylamine (Kovatchev et al., 1981) when free fatty acids were diluted into assembly buffer.
For most experiments, tau proteins were diluted to 2× the desired concentration in buffer A, then 1/2 in borate saline (0.1 M H3BO3, 25 mM Na2B4O7, 75 mM NaCl) supplemented with 20 mM dithiothreitol (DTT) and 2× the required concentration of free fatty acids (final pH ˜8.4). Assembly was performed at 37° C. in siliconized microfuge tubes. For evaluating the dependence of assembly on ionic strength, tau was diluted 1/10 into 111 mM Tris pH 7.2, 11 mM DTT, supplemented to give the indicated final concentrations of NaCl. At 250 mM NaCl, the measured CMC of arachidonic acid in the Tris buffering system was >2 mM.

The next series addresses T2, human recombinant tau (Homo sapiens, UniProt P10636).
T2 construct: the conditions defined herein are conducive to assembly of the full length tau protein; polyhistidine tag; host or cells: E. coli
As to the kind of experiment: Arachidonic acid dependence of tau assembly, human recombinant tau. Format: biochemical. To be noted: 20-80 μM arachidonic acid, 66 hours; no spontaneous assembly. An excerpt:
Sprague-Dawley rats were obtained from Charles River, Wilmington, Mass., and killed by decapitation at postnatal day 11 (juveniles) or at greater than six weeks of age (adults). Fresh porcine brains were obtained from Bryan Meat Packing, Westpoint Miss. Detailed protocols for the isolation of tau from whole brain or twice-cycled brain microtubules have been described above. Nonphosphorylated, recombinant human tau (htau40; Goedert et al., 1989) was the gift of Dr. Jeff Kuret, Northwestern University Medical School, Chicago, Ill. Recombinant tau was produced in E. coli as a fusion protein with a polyhistidine tag, and purified to near homogeneity by nickel-chelate and gel filtration chromatography (Carmel et al., 1994). Following purification tau isolates were dialyzed against buffer A (20 mM morpholinoethanesulfonic acid pH 6.8, 80 mM NaCl, 2 mM EGTA, 1 mM MgCl2, 0.1 mM EDTA) and stored at −80° C. Protein concentrations were determined using the method of Lowry (Lowry et al., 1951), after samples in Laemmli sample buffer (Laemmli, 1970) were precipitated with 10 volumes of 10% perchloric acid, 1% phosphotungstic acid. Bovine serum albumin was used as the standard. […] At 250 mM NaCl, the measured CMC of arachidonic acid in the Tris buffering system was >2 mM. […]

For a further series, the system named is tau. As to the kind of experiment: Arachidonic acid stimulated polymerization, all tau preparations examined. It is filed as biochemical. To be noted: tau concentrations of 2.5-5 μM. How it is done: (§1) For most experiments, tau proteins were diluted to 2× the desired concentration in buffer A, then 1/2 in borate saline (0.1 M H3BO3, 25 mM Na2B4O7, 75 mM NaCl) supplemented with 20 mM dithiothreitol (DTT) and 2× the required concentration of free fatty acids (final pH ˜8.4). Assembly was performed at 37° C. in siliconized microfuge tubes. For evaluating the dependence of assembly on ionic strength, tau was diluted 1/10 into 111 mM Tris pH 7.2, 11 mM DTT, supplemented to give the indicated final concentrations of NaCl. At 250 mM NaCl, the measured CMC of arachidonic acid in the Tris buffering system was >2 mM. […] For staining of amyloid filaments, 4% uranyl acetate was used and the H2O rinse was omitted. […] For filament length measurements, random micrographs obtained at a nominal magnification of 15K were digitized and traced using either software from Universal Imaging Corporation or the public domain NIH Image program (for Macintosh; written by W. Rasband at the NIH and available from the Internet by anonymous ftp from zippy.nimh.nih.gov or on floppy disk from NTIS, 5285 Port Royal Rd., Springfield, Va. 22161, part number PB93-504868). […] Because short filaments were sometimes difficult to distinguish from background debri in digitized images, high concentrations of DTT were routinely used in order to maximize the production of longer filaments.

For the next series, the system named is adult rat MTτ. The experiment in a line: Arachidonic acid dependence of tau assembly, adult rat MTτ. Format: biochemical. As to conditions: arachidonic acid 10-40 μM. The protocol:
as §1

Series [3] deals with tau purified from porcine whole brain. As to the kind of experiment: Arachidonic acid dependence of tau assembly, porcine whole brain tau. It is filed as biochemical. To be noted: 20-80 μM arachidonic acid, 66 hours; no spontaneous assembly. How it is done: Assembly was performed at 37° C. in siliconized microfuge tubes. […] For staining of amyloid filaments, 4% uranyl acetate was used and the H2O rinse was omitted. […] Because short filaments were sometimes difficult to distinguish from background debri in digitized images, high concentrations of DTT were routinely used in order to maximize the production of longer filaments.

Some results are limits rather than exact numbers.

T2 sequence (P10636 1-441 isoform P10636-8): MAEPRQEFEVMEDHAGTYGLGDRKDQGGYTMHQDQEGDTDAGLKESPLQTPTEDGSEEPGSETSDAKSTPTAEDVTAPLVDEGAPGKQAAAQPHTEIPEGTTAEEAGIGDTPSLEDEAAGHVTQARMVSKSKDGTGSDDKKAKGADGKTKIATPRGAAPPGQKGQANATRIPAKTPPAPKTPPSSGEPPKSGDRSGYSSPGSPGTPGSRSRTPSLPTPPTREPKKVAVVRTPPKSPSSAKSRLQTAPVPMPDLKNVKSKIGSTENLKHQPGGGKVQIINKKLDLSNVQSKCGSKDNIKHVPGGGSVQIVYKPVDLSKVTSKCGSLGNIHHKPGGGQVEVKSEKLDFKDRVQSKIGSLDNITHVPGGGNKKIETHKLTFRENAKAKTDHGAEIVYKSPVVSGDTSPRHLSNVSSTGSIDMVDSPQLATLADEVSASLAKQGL

On to `N[C@@H](CCC(=O)N[C@@H](CS)C(=O)NCC(=O)O)C(=O)O` [glutathione], for which the “assembly of microtubule tau (rat)” value in series [1] is “promoted the assembly”.

As for `CCCCCC=CCC=CCC=CCC=CCCCC(=O)O` [5,8,11,14-eicosatetraenoic acid (20:4), 5,8,11,14-eicosatetraenoic acid], on juvenile rat MTτ (50 μM free fatty acid, 72 hours, juvenile rat MTτ, average ± S.E.M. (n = 12)), the “Polymer Mass (μm/field)” value worked out at 24.51 ± 2.58 μm/field. Further, on juvenile rat MTτ (50 μM free fatty acid, 72 hours, relative to the maximal assembly achieved with arachidonic acid), the “% maximum” value is on record as 100%. Further, the “apparent threshold for stimulation of tau assembly” value on juvenile rat MTτ (juvenile MTτ, longest timepoint tested) is recorded as “less than 10 μμM”. Besides, the “CMC in the Tris buffering system” value in series [2] (250 mM NaCl, Tris buffering system) is listed as greater than 2 mM. Besides, the CMC in series [2] (free fatty acids diluted into assembly buffer) amounted to 0.16 mM. The “filament formation, human recombinant tau” value at human recombinant tau is on record as “Filaments were observed”. In the series on tau, the “lowest concentration inducing assembly” value is 10 to 20 µM. The “polymerization of adult rat MTτ” value in the series with adult rat MTτ is “stimulated the polymerization”. In addition, in series [3], the “filament formation, tau purified from porcine whole brain” value is on record as “Filaments were observed”.
